Test results: patent US12509421B2, “Preparation and application of deuterated 4-phenyl-4-piperidinols” (priority 2022, dated 2025)
Where a name gives a salt, the structure may show the parent alone.

Experiments:
[1] = Metabolic stability in liver microsomes, human; details: for half-life at 2 μM / microsomal CLint at 2 μM: human, microsomes, pH 7.4
Description: (§1) The solution B is slowly dropped into solution A, and the pH is adjusted to 7.40±0.05.
(§2) • Control drug: 4 μL Verapamil solution (10 mM) is added with 96 μL DMSO and diluted to 400 μM; • Compound to be tested: 4 μL compound to be tested (10 mM) is added with 96 μL normal saline and diluted to 400 μM.
(§3) The microsomes are stored in the refrigerator at −80° C., thawed at room temperature after being taken out, and mixed gently.
(§4) […] PBS (100 mm, pH=7.4) solution is added to the negative sample. The solution is put into water bath at 37° C. and pre-incubated for 10 minutes; • B) After incubation, 2 μL reference drug or compound to be tested (400 μM) are added into each well to start the reaction.

[2] = Metabolic stability in liver microsomes, rat; details: for half-life at 2 μM / microsomal CLint at 2 μM: rat, microsomes, pH 7.4
Description: as §1, §2, §3, §4

[3] = system: ICR mice; assay: Evaluation of side effects of constipation (defecation time, number, weight); assay type: in vivo; details: for Number of defecating animals: 10 mice per group; for Number of defecating animals / Fecal weight: within 5 hours; for Defecation time: first black stool; for Defecation time / water content of feces / Fecal weight: x ± SE; for Defecation time / water content of feces: only animals that defecate within 5 hours
Description: Constipation side effect is a common side effect of opioid drugs. This patent evaluates the possibility of constipation side effect by the influence of the compound on defecation time, defecation quantity and defecation weight of experimental animals.
ICR mice are randomly divided into 6 groups with 10 mice in each group after adaptive feeding. Fasting for 16-24 h, without stopping drinking, the blank control group is given solvent, during which the normal diet is: (1) the blank control group; (2) Compound diphenoxylate (7.5 mg/kg) group; (3) Low dose (1 mg/kg) group; (4) High dose (5 mg/kg) group of the compound to be tested.
After administration for 30 minutes, the mice in each group are given Chinese ink by gavage. After administration, the mice are kept in a single cage, and the excretion time of the first black stool is recorded. The number and weight (wet weight) of defecation particles in each mouse within 5 hours after administration are recorded. each group of mice are placed in an IVC cage with clean filter paper. The feces of each mouse are collected, put into a sterile 1.5 ml EP tube and stored in an ice box. During the collection, the number of defecation particles of each mouse is recorded, and the wet weight is weighed. After the collected feces are dried, the dry weight of the feces is recorded. Drying conditions: put fresh feces in an oven and bake at 100° C. for 5-10 minutes until the dry weight of feces is constant. The following formula is used to calculate the water content of feces, and the water content of feces (%)=(wet feces mass−dry feces mass)/wet feces mass×100%.
The data required for measurement and observation in this experiment are recorded in the corresponding table. All data are statistically processed by Microsoft Excel, and expressed as “mean standard error”. The data of each group are statistically analyzed by SPSS software package.

[4] = Metabolic stability in liver microsomes, dog; details: for half-life at 2 μM / microsomal CLint at 2 μM: dog, microsomes, pH 7.4
Description: as §1, §2, §3, §4

[5] = target: CYP 3A4 (Homo sapiens, UniProt P08684); assay: biochemical; details: CYP 3A4 IC50, human liver microsomes
[6] = target: T1, CYP 1A2 (Homo sapiens, UniProt P05177); assay: Inhibition of cytochrome P450 enzyme in human liver microsomes, CYP 1A2
T1 sequence (P05177 1-516): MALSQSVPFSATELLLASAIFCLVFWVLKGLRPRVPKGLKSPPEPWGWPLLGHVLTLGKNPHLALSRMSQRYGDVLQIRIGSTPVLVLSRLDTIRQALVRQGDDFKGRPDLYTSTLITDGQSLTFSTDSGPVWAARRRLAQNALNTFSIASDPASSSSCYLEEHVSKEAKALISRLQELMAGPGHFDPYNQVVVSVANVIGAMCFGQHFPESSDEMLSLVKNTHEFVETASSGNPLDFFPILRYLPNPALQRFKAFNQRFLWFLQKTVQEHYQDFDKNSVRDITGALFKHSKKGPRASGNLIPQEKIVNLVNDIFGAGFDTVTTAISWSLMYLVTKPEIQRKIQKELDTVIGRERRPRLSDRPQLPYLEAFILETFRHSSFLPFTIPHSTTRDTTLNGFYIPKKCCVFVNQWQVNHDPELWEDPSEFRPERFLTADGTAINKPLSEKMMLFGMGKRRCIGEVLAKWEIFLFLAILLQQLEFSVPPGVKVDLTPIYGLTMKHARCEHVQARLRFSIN

[7] = Human liver microsomes 0.5 mg/mL, NADPH 1 mM, compound 2 μM
[8] = Rat liver microsomes 0.5 mg/mL, NADPH 1 mM, compound 2 μM
[9] = Dog liver microsomes 0.5 mg/mL, NADPH 1 mM, compound 2 μM

Chain of CYP 3A4 (P08684 whole entry): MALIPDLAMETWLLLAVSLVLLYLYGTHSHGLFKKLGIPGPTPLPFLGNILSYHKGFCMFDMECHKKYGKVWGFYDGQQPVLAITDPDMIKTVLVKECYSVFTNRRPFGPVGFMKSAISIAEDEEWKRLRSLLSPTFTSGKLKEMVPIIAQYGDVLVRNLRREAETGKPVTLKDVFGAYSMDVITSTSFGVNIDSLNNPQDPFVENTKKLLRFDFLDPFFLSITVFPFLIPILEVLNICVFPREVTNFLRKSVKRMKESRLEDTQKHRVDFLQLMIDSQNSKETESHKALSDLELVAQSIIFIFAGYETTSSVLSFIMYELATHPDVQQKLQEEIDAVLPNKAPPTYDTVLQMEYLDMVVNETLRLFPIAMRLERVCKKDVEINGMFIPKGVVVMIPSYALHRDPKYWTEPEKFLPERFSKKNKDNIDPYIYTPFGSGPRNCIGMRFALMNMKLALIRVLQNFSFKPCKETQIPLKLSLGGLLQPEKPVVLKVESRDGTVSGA

Structure (SMILES)	Number of defecating animals ([3]; 1 mg/kg)	Defecation time ([3]; 1 mg/kg) [min]	water content of feces ([3]; 1 mg/kg) [%]	Fecal weight ([3]; 1 mg/kg) [g]	water content of feces ([3]; 5 mg/kg) [%]	Fecal weight ([3]; 5 mg/kg) [g]	IC50 ([5]; substrate midazolam) [µM]	IC50 ([5]; substrate testosterone) [µM]	half-life at 2 μM [1] [min]	microsomal CLint at 2 μM [1] [µL/min/mg]	half-life at 2 μM [2] [min]	microsomal CLint at 2 μM [2] [µL/min/mg]	IC50 [6] [µM]	Number of defecating animals ([3]; 5 mg/kg)	Defecation time ([3]; 5 mg/kg) [min]	half-life at 2 μM [4] [min]	microsomal CLint at 2 μM [4] [µL/min/mg]	other results
COc1cccc([C@]2(O)CCN(S(=O)(=O)Cc3ccccc3)C[C@H]2CN(C)C)c1.Cl [Example 20 of CN201911076305.X, reference compound]	9	281 ± 4	19.6 ± 4.5	0.1243 ± 0.0153	0	0	–	–	–	–	–	–	–	–	–	–	–	CLint [1, 7]: 950.42 μL/min/mg protein; t1/2 [1, 7]: 1.46 min; CLint [2, 8]: 747.68 μL/min/mg protein; t1/2 [2, 8]: 1.85 min; Number of defecating animals ([3]; 5 mg/kg, hydrochloride): 0; Number of defecating animals ([3]; 5 mg/kg, listed as Example 20 in patent CN201911076305.X, hydrochloride): did not defecate; constipation in experimental animals ([3]; comparative experiments of the inventor): can cause constipation in experimental animals in a dose-dependent manner; CLint [4, 9]: 839.02 μL/min/mg protein; t1/2 [4, 9]: 1.65 min
[2H]C([2H])([2H])N(C)C[C@@H]1CN(S(=O)(=O)Cc2ccccc2)CC[C@@]1(O)c1cccc(OC)c1 [II-1hydrochloride]	9	105.9 ± 10.5	43.5 ± 2.6	0.3682 ± 0.0816	38.2 ± 8.6	0.0586 ± 0.0065	42.9	41.9	5.22	663	5.63	701	> 50	3	202.4 ± 6.2	5.01	605	–
[2H]C([2H])([2H])N(C[C@@H]1CN(S(=O)(=O)Cc2ccccc2)CC[C@@]1(O)c1cccc(OC)c1)C([2H])([2H])[2H] [II-3hydrochloride]	8	152.8 ± 4.1	43.0 ± 2.1	0.3396 ± 0.0965	37.8 ± 8.9	0.0482 ± 0.0053	46.8	43.6	5.46	685	5.72	697	> 50	2	243.6 ± 10.5	5.26	663	–
[2H]C([2H])([2H])Oc1cccc([C@]2(O)CCN(S(=O)(=O)Cc3ccccc3)C[C@H]2CN(C([2H])([2H])[2H])C([2H])([2H])[2H])c1 [II-5hydrochloride]	8	160.1 ± 9.9	42.7 ± 1.9	0.3389 ± 0.0902	37.6 ± 8.6	0.0478 ± 0.0061	> 50	> 50	6.25	704	6.59	763	> 50	2	202.8 ± 4.2	6.03	720	–
[2H]C([2H])([2H])N(C)C[C@@H]1CN(C(=O)Cc2cc(F)c(F)cc2F)CC[C@@]1(O)c1cccc(OC)c1 [II-7hydrochloride, 1-((3R,4S)-4-hydroxy-4-(3-methoxyphenyl)-3-(((methyl-d3)amino)methyl)-1-piperidinyl)-2(2,4,5-trifluorophenyl)ethyl-1-one]	9	109.0 ± 8.8	44.8 ± 3.2	0.3846 ± 0.0798	38.6 ± 7.9	0.0612 ± 0.0079	49.7	47.5	5.42	681	5.68	689	> 50	3	200.6 ± 7.9	5.25	669	–
[2H]C([2H])([2H])N(C[C@@H]1CN(C(=O)Cc2cc(F)c(F)cc2F)CC[C@@]1(O)c1cccc(OC)c1)C([2H])([2H])[2H] [II-9hydrochloride]	8	182.6 ± 10.2	43.2 ± 2.5	0.3399 ± 0.0983	37.9 ± 8.9	0.0489 ± 0.0073	48	47	5.32	673	5.55	681	> 50	2	242.9 ± 11.9	5.19	659	–
[2H]C([2H])([2H])Oc1cccc([C@]2(O)CCN(C(=O)Cc3cc(F)c(F)cc3F)C[C@H]2CN(C([2H])([2H])[2H])C([2H])([2H])[2H])c1 [II-11hydrochloride]	8	190.3 ± 12.7	43.5 ± 2.8	0.3402 ± 0.0828	38.2 ± 9.5	0.0496 ± 0.0067	> 50	> 50	6.18	711	6.46	747	> 50	2	265.9 ± 13.1	5.99	703	–
